Where two headings read alike, the source gives them in different places.
Target: T1, horseradish peroxidase (HRP) tagged delF508-CFTR (Homo sapiens, UniProt P13569, DEL508-508)
T1 construct: expressed in transfected cells
Experiment: Measurement of delF508-CFTR-HRP surface expression in CFBE41o- cells;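 as to DelF508-CFTR-HRP Amax %: percent efficacy relative to reference corrector lumacaftor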
Type: cell-based
Conditions: CFBE41o- cells; for Emax: read-out: DelF508-CFTR-HRP Amax %; for EC50: read-out: DelF508-CFTR-HRP EC50
Procedure, shortened: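 Surface-trafficked delF508-CFTR detected via extracellular HRP tag, read as luminescence from a membrane-impermeant substrate in CFBE41o- cells. Cells pre-induced 48h with 500 ng/mL doxycycline, then exposed 24h at 37° C to a 10-point, 3-fold dilution series from 10 μM (DMSO ≤0.5%). Triplicate dose-responses fitted logistically for EC50 after per-plate normalization; fold change versus reference compound.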

[1] = delF508-CFTR-HRP surface expression
[2] = mean of at least two replicates

T1 sequence (P13569 with tags, fused parts or gaps DEL508-508): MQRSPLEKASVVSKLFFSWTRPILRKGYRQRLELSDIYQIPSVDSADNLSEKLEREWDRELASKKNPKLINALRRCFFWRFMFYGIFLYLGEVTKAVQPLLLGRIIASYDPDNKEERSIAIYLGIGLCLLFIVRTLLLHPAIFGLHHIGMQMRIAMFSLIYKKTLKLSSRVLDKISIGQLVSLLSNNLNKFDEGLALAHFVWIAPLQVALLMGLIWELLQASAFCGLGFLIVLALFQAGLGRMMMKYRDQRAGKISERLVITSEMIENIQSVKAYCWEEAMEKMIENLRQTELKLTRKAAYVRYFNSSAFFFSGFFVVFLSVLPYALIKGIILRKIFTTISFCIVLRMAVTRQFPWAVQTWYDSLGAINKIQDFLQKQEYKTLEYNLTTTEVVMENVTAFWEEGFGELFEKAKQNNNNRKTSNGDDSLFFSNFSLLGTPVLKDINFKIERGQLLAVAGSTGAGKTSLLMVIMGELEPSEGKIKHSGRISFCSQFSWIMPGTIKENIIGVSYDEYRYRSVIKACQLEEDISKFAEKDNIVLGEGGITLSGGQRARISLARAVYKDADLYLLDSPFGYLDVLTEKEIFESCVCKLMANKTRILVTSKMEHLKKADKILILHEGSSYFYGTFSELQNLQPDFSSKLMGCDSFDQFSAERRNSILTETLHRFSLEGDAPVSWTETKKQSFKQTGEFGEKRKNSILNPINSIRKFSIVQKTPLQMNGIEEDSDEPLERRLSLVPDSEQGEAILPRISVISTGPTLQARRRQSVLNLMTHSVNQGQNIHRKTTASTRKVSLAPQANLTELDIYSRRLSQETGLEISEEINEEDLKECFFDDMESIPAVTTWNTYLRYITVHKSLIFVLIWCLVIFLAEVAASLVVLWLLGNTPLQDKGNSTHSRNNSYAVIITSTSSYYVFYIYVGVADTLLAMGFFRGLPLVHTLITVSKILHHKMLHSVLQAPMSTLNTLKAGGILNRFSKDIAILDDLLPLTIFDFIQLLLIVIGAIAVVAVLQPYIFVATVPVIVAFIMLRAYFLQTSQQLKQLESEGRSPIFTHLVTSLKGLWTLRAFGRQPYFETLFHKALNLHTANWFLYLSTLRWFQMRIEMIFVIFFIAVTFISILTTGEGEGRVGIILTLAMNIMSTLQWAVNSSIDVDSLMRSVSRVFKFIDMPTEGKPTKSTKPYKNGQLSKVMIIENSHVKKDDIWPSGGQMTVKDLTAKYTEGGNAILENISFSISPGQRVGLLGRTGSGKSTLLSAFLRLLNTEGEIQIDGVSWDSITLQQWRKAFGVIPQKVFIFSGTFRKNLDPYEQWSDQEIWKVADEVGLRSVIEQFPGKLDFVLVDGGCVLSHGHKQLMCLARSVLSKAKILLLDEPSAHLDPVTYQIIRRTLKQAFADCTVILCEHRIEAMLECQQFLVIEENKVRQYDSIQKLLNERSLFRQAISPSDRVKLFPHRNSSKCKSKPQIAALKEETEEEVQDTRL

Emax [1] [%]	EC50 [1] [nM]	EC50 [2] [nM]	Emax (surface expression Amax) [%]	SMILES
20.3	3190			Nc1cccc(S(=O)(=O)Nc2ccc(Cl)c(-c3ccc(C(F)(F)F)cc3)n2)n1 [Example 94, 6-amino-N-(5-chloro-6-(4-(trifluoromethyl)phenyl)pyridin-2-yl)pyridine-2-sulfonamide]
		1020	928	CC(C)c1ccccc1-c1nc(NS(=O)(=O)c2cccc(N3CCCC(C)(C(=O)O)C3)n2)ccc1Cl (stereo not drawn) [Example 388, 1-(6-(N-(5-chloro-6-(2-isopropylphenyl)pyridin-2-yl)sulfamoyl)pyridin-2-yl)-3-methylpiperidine-3-carboxylic Acid]
		1920	705	O=C(O)C1CC12CCN(c1cccc(S(=O)(=O)Nc3ccc(C(F)(F)F)c(-c4ccccc4C4CC4)n3)n1)C2 (stereo not drawn) [Example 420, 5-(6-(N-(6-(2-cyclopropylphenyl)-5-(trifluoromethyl)pyridin-2-yl)sulfamoyl)pyridin-2-yl)-5-azaspiro[2.4]heptane-1-carboxylic Acid]
		2310	299	Cc1ccccc1-c1nc(NS(=O)(=O)c2cccc(N3CCCC4(CC4C(=O)O)C3)n2)ccc1C(F)(F)F (stereo not drawn) [Example 441, 5-(6-(N-(6-(o-tolyl)-5-(trifluoromethyl)pyridin-2-yl)sulfamoyl)pyridin-2-yl)-5-azaspiro[2.5]octane-1-carboxylic Acid]
128	4570			Cc1ccccc1-c1nc(NS(=O)(=O)c2cccc(N3CCC34CNC4)n2)ccc1C(F)(F)F [Example 313, 6-(1,6-diazaspiro[3.3]heptan-1-yl)-N-(6-(o-tolyl)-5-(trifluoromethyl)pyridin-2-yl)pyridine-2-sulfonamide]
231	1590			Cc1ccccc1-c1nc(NS(=O)(=O)c2cccc(N[C@H]3CC[C@H](C(=O)O)CC3)n2)ccc1C(F)(F)F [Example 364, (1r,4r)-4-((6-(N-(6-(o-tolyl)-5-(trifluoromethyl)pyridin-2-yl)sulfamoyl)pyridin-2-yl)amino)cyclohexanecarboxylic Acid]
111	1540			Cc1ccc(C#N)cc1-c1nc(NS(=O)(=O)c2cccc(N)n2)ccc1Cl [Example 84, 6-amino-N-(5-chloro-6-(5-cyano-2-methylphenyl)pyridin-2-yl)pyridine-2-sulfonamide]
53.2	4970			COc1cc(NS(=O)(=O)c2cccc(N3CCNCC3)n2)nc(-c2c(C)cccc2C)c1 [Example 139, N-(6-(2,6-dimethylphenyl)-4-methoxypyridin-2-yl)-6-(piperazin-1-yl)pyridine-2-sulfonamide]
616	705			CC1(C(=O)O)CCN(c2cccc(S(=O)(=O)Nc3ccc(C(F)(F)F)c(-c4ccccc4C4CCC4)n3)n2)CC1 [Example 363, 1-(6-(N-(6-(2-cyclobutylphenyl)-5-(trifluoromethyl)pyridin-2-yl)sulfamoyl)pyridin-2-yl)-4-methylpiperidine-4-carboxylic Acid]
		4060	47.5	CC1(C(=O)O)CCCN(c2cccc(S(=O)(=O)Nc3ccc(C(F)(F)F)c(-c4ccccc4CO)n3)n2)C1 (stereo not drawn) [Example 444, 1-(6-(N-(6-(2-(hydroxymethyl)phenyl)-5-(trifluoromethyl)pyridin-2-yl)sulfamoyl)pyridin-2-yl)-3-methylpiperidine-3-carboxylic Acid]
962	1720			CCc1ccccc1-c1nc(NS(=O)(=O)c2cccc(N3CCC[C@@H](C(=O)O)C3)n2)ccc1C(F)(F)F [Example 369, (R)-1-(6-(N-(6-(2-ethylphenyl)-5-(trifluoromethyl)pyridin-2-yl)sulfamoyl)pyridin-2-yl)piperidine-3-carboxylic Acid]
	1790			CCOc1ccccc1-c1nc(NS(=O)(=O)c2cccc(N3CCC[C@@](C)(C(=O)O)C3)n2)ccc1C(F)(F)F [Example 328, (R)-1-(6-(N-(6-(2-ethoxyphenyl)-5-(trifluoromethyl)pyridin-2-yl)sulfamoyl)pyridin-2-yl)-3-methylpiperidine-3-carboxylic Acid]
		2020		COc1ccc(Cl)c(-c2nc(NS(=O)(=O)c3cccc(N4CCC[C@@](C)(C(=O)O)C4)n3)ccc2C(F)(F)F)c1 [Example 424, (R)-1-(6-(N-(6-(2-chloro-5-methoxyphenyl)-5-(trifluoromethyl)pyridin-2-yl)sulfamoyl)pyridin-2-yl)-3-methylpiperidine-3-carboxylic Acid]
		2220	264	Cc1ccc(F)cc1-c1nc(NS(=O)(=O)c2cccc(N3CCCC4(CC4C(=O)O)C3)n2)ccc1C(F)(F)F (stereo not drawn) [Example 439, 5-(6-(N-(6-(5-fluoro-2-methylphenyl)-5-(trifluoromethyl)pyridin-2-yl)sulfamoyl)pyridin-2-yl)-5-azaspiro[2.5]octane-1-carboxylic Acid]
		1810	362	Cc1ccccc1-c1nc(NS(=O)(=O)c2cccc(NC3CCCC(C(=O)O)C3)n2)ccc1C(F)(F)F (mixture of isomers) [Example 460, 3-((6-(N-(6-(o-tolyl)-5-(trifluoromethyl)pyridin-2-yl)sulfamoyl)pyridin-2-yl)amino)cyclohexanecarboxylic acid]
154	2740			Cc1ccccc1-c1nc(NS(=O)(=O)c2cccc(N3CCNC[C@H]3C(=O)O)n2)ccc1C(F)(F)F [Example 354, (2S)-1-(6-{[6-(2-methylphenyl)-5-(trifluoromethyl)pyridin-2-yl]sulfamoyl}pyridin-2-yl)piperazine-2-carboxylic Acid]
127	1980			Cc1cccc(C)c1-c1nc(NS(=O)(=O)c2ccc(Br)c(N)n2)ccc1Cl [Example 81, 6-amino-5-bromo-N-(5-chloro-6-(2,6-dimethylphenyl)pyridin-2-yl)pyridine-2-sulfonamide]
		1630	588	CCc1ccccc1-c1nc(NS(=O)(=O)c2cccc(N3CCCC(C)(C(=O)O)C3)n2)ccc1Cl (stereo not drawn) [Example 387, 1-(6-(N-(5-chloro-6-(2-ethylphenyl)pyridin-2-yl)sulfamoyl)pyridin-2-yl)-3-methylpiperidine-3-carboxylic Acid]
278	2450			Cc1ccccc1-c1nc(NS(=O)(=O)c2cccc(N3C[C@H]4C[C@H]4[C@H]3C(=O)O)n2)ccc1C(F)(F)F [Example 340, (1R,2S,5S)-3-(6-{[6-(2-methylphenyl)-5-(trifluoromethyl)pyridin-2-yl]sulfamoyl}pyridin-2-yl)-3-azabicyclo[3.1.0]hexane-2-carboxylic Acid]
225	2970			Cc1ccccc1-c1nc(NS(=O)(=O)c2cccc(OC3COCC3=O)n2)ccc1C(F)(F)F (racemic) [Example 292, 6-((4-oxotetrahydrofuran-3-yl)oxy)-N-(6-(o-tolyl)-5-(trifluoromethyl)pyridin-2-yl)pyridine-2-sulfonamide]
345	1240			CC(C)c1ccccc1-c1nc(NS(=O)(=O)c2ccc(N)nc2)ccc1Cl [Example 45, 6-amino-N-(5-chloro-6-(2-isopropylphenyl)pyridin-2-yl)pyridine-3-sulfonamide]

SMILES	Emax [1] [%]	EC50 [1] [nM]	EC50 [2] [nM]	Emax (surface expression Amax) [%]
CC(C)COc1ccccc1-c1nc(NS(=O)(=O)c2cccc(N3CCCC(C)(C(=O)O)C3)n2)ccc1Cl (stereo not drawn) [Example 400, 1-(6-(N-(5-chloro-6-(2-isobutoxyphenyl)pyridin-2-yl)sulfamoyl)pyridin-2-yl)-3-methylpiperidine-3-carboxylic Acid]			1100	672

Source: patent publication US11066369B2, “N-(pyridin-2-yl)pyridine-sulfonamide derivatives and their use in the treatment of disease” (Novartis AG, priority 2016, dated 2021)
